Results reported in patent US10532113B2, “Polymeric systems and uses thereof in theranostic applications” (Ramot at Tel-Aviv University Ltd., priority 2014, dated 2020).

Tests used:
HUVEC [1] = test: Cell viability assay, HPMA conjugate study, HUVEC proliferation; type: cell-based; conditions: Homo sapiens, 96 hours incubation
Experimental: (§1) 4T1 cells (3,000 cells/well), HUVEC (10,000 cells/well) and MDA-MB-231 cells (10,000 cells/well) were plated onto 24-well culture plates in RPMI supplemented with 2% FBS, EBM-2 supplemented with 5% FBS or in DMEM supplemented with 10% FBS respectively, and incubated for 24 hours (37° C.; 5% CO2). The medium was then replaced with RPMI 1640 supplemented with 10% FBS, EGM-2 or DMEM supplemented with 10% FBS. Cells were exposed to PTX and PTX bound-conjugates at serial dilutions, at equivalent dose of the free PTX. Number of viable cells was counted by a Z1 Coulter Counter® Cell and Particle Counter (Beckman Coulter®) following 96 hours of incubation.

[2] = test system: human MDA-MB-231 mammary adenocarcinoma cells; test: Cell viability assay, PGA-PTX-Cy5 study, MDA-MB-231 cells; type: cell-based; conditions: 72 hours incubation, read-out: IC50, proliferation of MDA-MB-231 cells
Experimental: (§2) 4T1 cells (8,000 cells/wells), WM239A cells (15,000 cells/well) and MDA-MB-231 cells (10,000/well) were plated onto 24-well culture in RPMI supplemented with 10% FBS, or in DMEM supplemented with 10% FBS respectively, and incubated for 24 hours (37° C.; 5% CO2). The medium was then replaced with RPMI 1640 supplemented with 10% FBS or DMEM supplemented with 10% FBS.
(§3) Cells were exposed to PTX and PTX-bound conjugates at serial dilutions, at equivalent dose of free PTX. Number of viable cells was counted by a Z1 Coulter Counter® Cell and Particle Counter (Beckman Coulter®) following 72 hours of incubation.

[3] = test system: murine 4T1 adenocarcinoma cells; test: Cell viability assay, PGA-PTX-Cy5 study, 4T1 cells; type: cell-based; conditions: Mus musculus, 72 hours incubation, read-out: IC50, proliferation of 4T1 cells
Experimental: as §2, §3

[4] = test system: murine 4T1 mammary adenocarcinoma cells; test: Cell viability assay, HPMA conjugate study, 4T1 cells; type: cell-based; conditions: Mus musculus, 96 hours incubation, read-out: IC50, proliferation of 4T1 cells
Experimental: as §1

HUVEC [5] = test: HUVEC migration scratch assay; type: cell-based, human; conditions: PTX-equivalent concentration 20 nM; 12 h
Experimental: The migration of HUVEC in the presence of PGA-PTX-Cy5 conjugate was evaluated using the scratch assay. The method is based on the observation that, upon creation of a new artificial gap, so called “scratch”, on a confluent cell monolayer, the cells on the edge of the newly created gap will move toward the opening to close the “scratch” until new cell-cell contacts are established again. […] At time zero (t=0) images were taken by phase-contrast microscope in a reference point. Following another 12 h of incubation, images of the reference point were taken again. The samples were analyzed quantitatively by ImageJ software.

[6] = test system: human MDA-MB-231 mammary adenocarcinoma cells; test: Cell viability assay, HPMA conjugate study, MDA-MB-231 cells; type: cell-based; conditions: 72 hours incubation (FIG. 10C), read-out: IC50, proliferation of MDA-MB-231 cells
Experimental: as §1, with “Number of viable cells was counted by a Z1 Coulter Counter® Cell and Particle Counter (Beckman Coulter®) following 96 hours of incubation.” left out

[7] = test system: human WM239A melanoma cells; test: Cell viability assay, PGA-PTX-Cy5 study, WM239A cells; type: cell-based; conditions: 72 hours incubation, read-out: IC50, proliferation of WM239A cells
Experimental: as §2, §3

- IC50 [2]: ~2 nM
- IC50 [3]: ~60 nM
- IC50 [4]: ~35 nM
- IC50 [6]: ~0.5 nM
- IC50 [7]: ~5 nM
Compound: CC(=O)O[C@H]1C(=O)[C@@]2(C)[C@H]([C@H](OC(=O)c3ccccc3)[C@]3(O)C[C@H](OC(=O)[C@H](O)[C@@H](NC(=O)c4ccccc4)c4ccccc4)C(C)=C1C3(C)C)[C@]1(OC(C)=O)CO[C@@H]1C[C@@H]2O [PTX, Paclitaxel]
- IC50 (HUVEC [1]): ~2 nM
- HUVEC migration, gap closure (HUVEC [5]): 20%
